{"source": "patent US9943473B2", "about": "“Zinc lysine halide complex” (Colgate-Palmolive Company, priority 2012, dated 2018)", "key": {"[1]": {"tested_on": "C. minutissimum", "experiment": "Zone of inhibition test on TSA plates", "assay_type": "cell-based", "description": "(§1) A zone of inhibition test is conducted on several materials: zinc oxide and amino acid hydrohalide alone and a mixture formed from zinc oxide and amino acid hydrohalide. The method involves making a lawn of freshly prepared bacterial culture on TSA (trypticase soy agar) plates. Sterile filter paper discs are seeded with 20 μl of test sample (supernatant or mixture). Sample-coated filter paper discs are air dried and applied onto the bacterial lawn on TSA plates. Plates are incubated for 20 hours at 37° C."}, "[2]": {"tested_on": "S. aureus", "experiment": "Zone of inhibition test on TSA plates", "assay_type": "cell-based", "description": "as §1"}, "[3]": {"tested_on": "C. xerosis", "experiment": "Zone of inhibition test on TSA plates", "assay_type": "cell-based", "description": "as §1"}, "[4]": {"tested_on": "S. epider.", "experiment": "Zone of inhibition test on TSA plates", "assay_type": "cell-based", "description": "as §1"}, "[5]": {"target": "Bovine Serum Albumin (BSA) (Bos taurus, UniProt P02769)", "sequence (P02769 25-607)": "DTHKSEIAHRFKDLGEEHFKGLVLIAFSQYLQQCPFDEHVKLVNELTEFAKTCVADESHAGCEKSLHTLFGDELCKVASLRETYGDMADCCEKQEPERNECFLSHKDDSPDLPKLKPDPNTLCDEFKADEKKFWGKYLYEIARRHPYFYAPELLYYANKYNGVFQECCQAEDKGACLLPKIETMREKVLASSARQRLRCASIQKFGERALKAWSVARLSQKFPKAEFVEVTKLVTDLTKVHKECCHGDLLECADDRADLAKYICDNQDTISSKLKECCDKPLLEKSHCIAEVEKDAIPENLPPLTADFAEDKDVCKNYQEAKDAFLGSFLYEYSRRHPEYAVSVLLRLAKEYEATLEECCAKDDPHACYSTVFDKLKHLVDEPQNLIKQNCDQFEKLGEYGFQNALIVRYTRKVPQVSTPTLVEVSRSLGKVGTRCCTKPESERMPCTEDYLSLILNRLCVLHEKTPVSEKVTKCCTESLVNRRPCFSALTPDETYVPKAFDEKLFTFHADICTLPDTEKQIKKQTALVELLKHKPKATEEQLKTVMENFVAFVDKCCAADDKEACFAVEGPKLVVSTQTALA", "experiment": "Flocculation of ZLC in the presence of protein (turbidity, pH)", "settings": "ZLC about 15 mg/ml, 5 hours at 37° C.", "description": "Turbidity and pH of solutions are measured 5 hours after the mixtures were placed in a 37° C. oven, and the results are shown in Table 6."}, "[6]": {"experiment": "Hydrolysis reaction: pH and turbidity of diluted ZLC solutions before and after aging", "assay_type": "physicochemical", "settings": "for pH after aging / turbidity after aging: aged at 37° C. over 5 hours", "description": "A 185 mg/ml solution of ZLC is prepared and diluted several-fold and aged in a 37° C. oven over 5 hours for turbidity studies. […] Turbidity of the solutions is measured using a nephelometer, results being given in nephelometric turbidity units (NTU).\nThe precipitates formed in the 8×, 16× and 32× diluted solutions are collected by centrifugation and identified as crystalline ZnO by PXRD. From the supernatant, a single crystal is grown and shown by X-ray diffraction to be Lysine Monohydrochloride Dihydrate (Lysine.HCl.2H2O)."}, "[7]": {"settings": "general description; cited from earlier work"}, "[8]": {"settings": "Table 3, sample form not stated"}, "[9]": {"settings": "sample 1: DI water, 0% BSA, pH 6.4"}}}
{"smiles": "N=C(N)NCCC[C@H](N)C(=O)O", "note": "[Arginine 4%, arginine]", "values": [{"measurement": "Zone of Inhibition", "setting": "[1]; [8]", "result": 0, "unit": "mm"}, {"measurement": "Zone of Inhibition", "setting": "[2]; [8]", "result": 0, "unit": "mm"}]}
{"smiles": "NCCCC[C@H](N)C(=O)O", "note": "[Lysine 4%, lysine]", "values": [{"measurement": "Zone of Inhibition", "setting": "[1]; [8]", "result": 0, "unit": "mm"}, {"measurement": "Zone of Inhibition", "setting": "[2]; [8]", "result": 0, "unit": "mm"}]}
{"smiles": "Cl.NCCCC[C@H](N)C(=O)O", "note": "[Lysine-HCl 23.2%, lysine hydrochloride]", "values": [{"measurement": "Zone of Inhibition", "setting": "[1]; [8]", "result": 0, "unit": "mm"}, {"measurement": "Zone of Inhibition", "setting": "[2]; Dry Sample, As is", "result": 0, "unit": "mm"}, {"measurement": "Zone of Inhibition", "setting": "[2]; [8]", "result": 0, "unit": "mm"}, {"measurement": "Zone of Inhibition", "setting": "[2]; Wet Sample, As is", "result": 0, "unit": "mm"}, {"measurement": "Zone of Inhibition", "setting": "[3]; Dry Sample, As is", "result": 0, "unit": "mm"}, {"measurement": "Zone of Inhibition", "setting": "[3]; Wet Sample, As is", "result": 0, "unit": "mm"}, {"measurement": "Zone of Inhibition", "setting": "[4]; Dry Sample, As is", "result": 0, "unit": "mm"}, {"measurement": "Zone of Inhibition", "setting": "[4]; Wet Sample, As is", "result": 0, "unit": "mm"}]}
{"smiles": "[Cl-].[Cl-].[OH-].[OH-].[OH-].[OH-].[OH-].[OH-].[OH-].[OH-].[Zn+2].[Zn+2].[Zn+2].[Zn+2].[Zn+2]", "note": "[TBZC (4%), zinc chloride hydroxide monohydrate]", "values": [{"measurement": "Zone of Inhibition", "setting": "[1]; Table 3, Mixture", "result": 7, "unit": "mm"}, {"measurement": "Zone of Inhibition", "setting": "[1]; Table 3, Supernat", "result": 7, "unit": "mm"}]}
{"smiles": "NCCCCC(N)C(=O)O.NCCCCC(N)C(=O)O.O.O.[Cl-].[Cl-].[Zn+2]", "note": "(stereo not drawn) [ZLC, [Zn(Lysine)2Cl]^+Cl^−.2H2O]", "values": [{"measurement": "Turbidity", "setting": "[5]; [9]", "result": 357, "unit": "NTU"}, {"measurement": "pH", "setting": "[5]; [9]", "result": 8}, {"measurement": "Turbidity", "setting": "[5]; sample 2: 1% BSA, pH 7.2", "result": ">1000", "unit": "NTU"}, {"measurement": "pH", "setting": "[5]; sample 2: 1% BSA, pH 7.2", "result": 8.2}, {"measurement": "Turbidity", "setting": "[5]; sample 3: 1% BSA, pH adjusted to 5.1", "result": ">1000", "unit": "NTU"}, {"measurement": "initial turbidity", "setting": "[6]; 5.78 mg/ml", "result": 40.1, "unit": "NTU"}, {"measurement": "pH after aging", "setting": "[6]; 5.78 mg/ml", "result": 8}, {"measurement": "turbidity after aging", "setting": "[6]; 5.78 mg/ml", "result": ">1000", "unit": "NTU"}, {"measurement": "initial turbidity", "setting": "[6]; 11.56 mg/ml", "result": 14.8, "unit": "NTU"}, {"measurement": "pH after aging", "setting": "[6]; 11.56 mg/ml", "result": 7.8}, {"measurement": "turbidity after aging", "setting": "[6]; 11.56 mg/ml", "result": ">1000", "unit": "NTU"}, {"measurement": "initial turbidity", "setting": "[6]; 23.125 mg/ml", "result": 0.7, "unit": "NTU"}, {"measurement": "pH after aging", "setting": "[6]; 23.125 mg/ml", "result": 7.7}, {"measurement": "turbidity after aging", "setting": "[6]; 23.125 mg/ml", "result": 247.4, "unit": "NTU"}, {"measurement": "initial turbidity", "setting": "[6]; 46.25 mg/ml", "result": 1.5, "unit": "NTU"}, {"measurement": "pH after aging", "setting": "[6]; 46.25 mg/ml", "result": 7.4}, {"measurement": "turbidity after aging", "setting": "[6]; 46.25 mg/ml", "result": 2.8, "unit": "NTU"}, {"measurement": "initial turbidity", "setting": "[6]; 92.5 mg/ml", "result": 2.8, "unit": "NTU"}, {"measurement": "pH after aging", "setting": "[6]; 92.5 mg/ml", "result": 7}, {"measurement": "turbidity after aging", "setting": "[6]; 92.5 mg/ml", "result": 2.6, "unit": "NTU"}, {"measurement": "initial turbidity", "setting": "[6]; 185 mg/ml", "result": 4.7, "unit": "NTU"}, {"measurement": "pH after aging", "setting": "[6]; 185 mg/ml", "result": 6.8}, {"measurement": "turbidity after aging", "setting": "[6]; 185 mg/ml", "result": 4.1, "unit": "NTU"}, {"measurement": "stability of the complex upon dilution", "setting": "[6]; 8×, 16× and 32× diluted solutions, precipitate identified as crystalline ZnO by PXRD", "result": "disassociates upon dilution, with consequent precipitation of zinc oxide"}]}
{"smiles": "[O]=[Zn]", "note": "[ZnO(4%), zinc oxide]", "values": [{"measurement": "solubility in water", "setting": "[7]", "result": "insoluble in water"}, {"measurement": "Zone of Inhibition", "setting": "[2]; Dry Sample, Mixture", "result": 7, "unit": "mm"}, {"measurement": "Zone of Inhibition", "setting": "[2]; Dry Sample, Supernatant", "result": 0, "unit": "mm"}, {"measurement": "Zone of Inhibition", "setting": "[2]; Wet Sample, Mixture", "result": 7, "unit": "mm"}, {"measurement": "Zone of Inhibition", "setting": "[2]; Wet Sample, Supernatant", "result": 0, "unit": "mm"}, {"measurement": "Zone of Inhibition", "setting": "[3]; Dry Sample, Mixture", "result": 0, "unit": "mm"}, {"measurement": "Zone of Inhibition", "setting": "[3]; Dry Sample, Supernatant", "result": 0, "unit": "mm"}, {"measurement": "Zone of Inhibition", "setting": "[3]; Wet Sample, Mixture", "result": 0, "unit": "mm"}, {"measurement": "Zone of Inhibition", "setting": "[3]; Wet Sample, Supernatant", "result": 0, "unit": "mm"}, {"measurement": "Zone of Inhibition", "setting": "[4]; Dry Sample, Mixture", "result": 10, "unit": "mm"}, {"measurement": "Zone of Inhibition", "setting": "[4]; Dry Sample, Supernatant", "result": 0, "unit": "mm"}, {"measurement": "Zone of Inhibition", "setting": "[4]; Wet Sample, Mixture", "result": 12, "unit": "mm"}, {"measurement": "Zone of Inhibition", "setting": "[4]; Wet Sample, Supernatant", "result": 0, "unit": "mm"}]}
